What was measured:
Assay type in all cases: biochemical
[1] = molecular target: T1, D-alanine aminotransferase (Dat-S180F) (Staphylococcus aureus, UniProt A0A0H2XHU6, S180F); test: lactate dehydrogenase-coupled assay of pyruvate production from D-alanine, A340
T1 construct: recombinant HIS-tagged Dat-S180F from BCDA1, expressed from pET28b in E. coli
T1 sequence (A0A0H2XHU6 1-282 S180F): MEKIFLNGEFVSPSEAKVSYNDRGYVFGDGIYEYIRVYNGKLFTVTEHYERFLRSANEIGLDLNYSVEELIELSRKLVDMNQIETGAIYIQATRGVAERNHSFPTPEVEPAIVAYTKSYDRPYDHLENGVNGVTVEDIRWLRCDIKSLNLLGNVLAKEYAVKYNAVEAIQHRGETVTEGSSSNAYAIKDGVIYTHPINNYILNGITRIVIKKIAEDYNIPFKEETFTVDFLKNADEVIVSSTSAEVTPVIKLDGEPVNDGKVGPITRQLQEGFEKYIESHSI

[2] = molecular target: T2, D-alanine aminotransferase (Dat) (Staphylococcus aureus, UniProt A0A0H2XHU6); test: as above
T2 construct: recombinant HIS-tagged wild-type Dat from JE2, expressed from pET28b in E. coli
T2 sequence (A0A0H2XHU6 1-282): T1 sequence (A0A0H2XHU6 1-282 S180F)

[3] = molecular target: T3, D-alanine aminotransferase (Dat) (Staphylococcus aureus, UniProt Q5HF24); test: lactate dehydrogenase-coupled assay, turnover of […] D-alanine to pyruvate
T3 construct: recombinant HIS-tagged wild-type Dat

SMILES	IC50 [1]	IC50 [2]	lactate dehydrogenase-coupled assay, turnover of 25 mM D-alanine to pyruvate [3]
N[C@H](CCl)C(=O)O [BCDA, β-chloro-D-alanine]	34 ± 4.7 µM	96.8 ± 12 µM	–
C[C@@H](N)C(=O)O [D-alanine]	–	–	comparison of wild-type Dat (green) and Dat-S180F (violet) enzymatic production of pyruvate from D-alanine

From paper PMC12723384, “A S180F substitution in D-alanine aminotransferase confers resistance to β-chloro-D-alanine in Staphylococcus aureus” (The Journal of Biological Chemistry, 2025)
